We go through two compounds from patent US8962855B2 (priority 2011, dated 2015).

Experiment [1] concerns SW-620. In words: cells. It counts as cell-based, human. To be noted: for IC50: Homo sapiens, SW-620, 48 h, read-out: IC50, cellular anti-proliferative assay.
Experiment [2] deals with IGROV1. In words: cells. It counts as cell-based, human. Particulars: for IC50: Homo sapiens, IGROV-1, 48 h, read-out: IC50, cellular anti-proliferative assay.
The test system of experiment [3] is HT29. In words: cells. To be noted: for IC50: Homo sapiens, HT-29, 48 h, read-out: IC50, cellular anti-proliferative assay. It counts as cell-based, human.
In experiment [4] the target is T1, CDK9/cyclin T1 (Homo sapiens, UniProt P50750).
T1 construct: C-terminal 6His-tagged, full-length recombinant, human cdk9 (MW=44 kDa); made in house; host or cells: Sf21 insect cells (baculovirus)
In words: biochemical.

Experiment [5] relates to RPMI-8226. Briefly: cells. Type of experiment: cell-based, human. To be noted: for IC50: Homo sapiens, RPMI-8226, 48 h, read-out: IC50, cellular anti-proliferative assay.
Experiment [6] relates to MDA-MB-435. Briefly: cells. Particulars: for IC50: Homo sapiens, MDA-MB-435, 48 h, read-out: IC50, cellular anti-proliferative assay. It counts as cell-based, human.
The target of experiment [7] is T2, CDK2/cyclin E (Homo sapiens, UniProt P24941).
T2 construct: C-terminal 6His-tagged, recombinant full-length CDK2 (MW=34 kDa); made in house; host or cells: Sf21 insect cells (baculovirus)
In words: biochemical.

Experiment [8] has as its system HS 578T. In words: cells. Particulars: for IC50: Homo sapiens, Hs-578T, 48 h, read-out: IC50, cellular anti-proliferative assay. Type of experiment: cell-based, human.
For experiment [9], the system named is M14. Briefly: cells. Type of experiment: cell-based, human. To be noted: for IC50: Homo sapiens, M14, 48 h, read-out: IC50, cellular anti-proliferative assay.
Experiment [10] relates to NCI-H322M. Briefly: cells. It counts as cell-based, human. To be noted: for IC50: Homo sapiens, NCI-H322M, 48 h, read-out: IC50, cellular anti-proliferative assay.
The test system of experiment [11] is KM12. Briefly: cells. Particulars: for IC50: Homo sapiens, KM12, 48 h, read-out: IC50, cellular anti-proliferative assay. It counts as cell-based, human.
Experiment [12] deals with T3, CDK3/cyclin E (Homo sapiens, UniProt Q00526).
T3 construct: C-terminal 6His-tagged recombinant human full-length cdk3 (MW=36 kDa); made in house; host or cells: Sf21 insect cells (baculovirus)
Briefly: biochemical.

The subject of experiment [13] is MDA-MB-231. In words: cells. Type of experiment: cell-based, human. Particulars: for IC50: Homo sapiens, MDA-MB-231, 48 h, read-out: IC50, cellular anti-proliferative assay.

T1 sequence (P50750 whole entry): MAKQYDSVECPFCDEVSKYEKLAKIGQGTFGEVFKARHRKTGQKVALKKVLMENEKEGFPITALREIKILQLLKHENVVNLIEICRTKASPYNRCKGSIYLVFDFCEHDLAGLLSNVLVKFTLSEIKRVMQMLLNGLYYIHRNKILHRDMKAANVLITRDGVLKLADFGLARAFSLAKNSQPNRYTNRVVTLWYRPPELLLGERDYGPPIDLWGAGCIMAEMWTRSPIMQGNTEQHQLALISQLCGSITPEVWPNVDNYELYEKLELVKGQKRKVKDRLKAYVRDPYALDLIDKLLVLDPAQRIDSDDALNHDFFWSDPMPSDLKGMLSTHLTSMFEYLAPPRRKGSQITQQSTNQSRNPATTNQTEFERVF
T1 sequence (O60563 whole entry partner): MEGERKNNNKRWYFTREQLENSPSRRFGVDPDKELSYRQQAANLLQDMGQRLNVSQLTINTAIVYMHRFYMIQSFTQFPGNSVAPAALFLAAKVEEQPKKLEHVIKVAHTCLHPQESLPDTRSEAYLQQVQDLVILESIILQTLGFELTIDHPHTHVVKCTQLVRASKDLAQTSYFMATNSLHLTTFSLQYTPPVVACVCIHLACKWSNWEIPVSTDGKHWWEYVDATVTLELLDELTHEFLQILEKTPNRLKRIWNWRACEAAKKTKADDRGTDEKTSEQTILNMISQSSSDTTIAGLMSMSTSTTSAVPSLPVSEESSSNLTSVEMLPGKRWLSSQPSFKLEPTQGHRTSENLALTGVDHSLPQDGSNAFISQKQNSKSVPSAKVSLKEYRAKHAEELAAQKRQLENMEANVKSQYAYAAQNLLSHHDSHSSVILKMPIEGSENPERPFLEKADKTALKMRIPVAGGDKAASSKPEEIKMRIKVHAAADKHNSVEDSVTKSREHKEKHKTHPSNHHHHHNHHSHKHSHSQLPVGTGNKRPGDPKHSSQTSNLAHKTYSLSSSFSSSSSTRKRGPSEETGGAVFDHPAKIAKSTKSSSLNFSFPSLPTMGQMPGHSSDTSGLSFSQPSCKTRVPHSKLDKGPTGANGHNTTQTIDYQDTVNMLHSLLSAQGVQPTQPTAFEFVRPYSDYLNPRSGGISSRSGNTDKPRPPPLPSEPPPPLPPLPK
T3 sequence (Q00526 whole entry): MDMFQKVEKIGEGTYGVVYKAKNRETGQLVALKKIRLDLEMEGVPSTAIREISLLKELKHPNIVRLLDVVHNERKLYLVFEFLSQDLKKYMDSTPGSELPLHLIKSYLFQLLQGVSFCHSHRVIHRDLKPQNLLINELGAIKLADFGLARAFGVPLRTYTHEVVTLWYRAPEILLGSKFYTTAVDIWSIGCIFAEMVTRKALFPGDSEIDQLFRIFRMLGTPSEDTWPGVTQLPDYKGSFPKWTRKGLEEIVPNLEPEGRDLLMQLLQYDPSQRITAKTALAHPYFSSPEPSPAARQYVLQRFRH
T3 sequence (P24864 whole entry, further chain): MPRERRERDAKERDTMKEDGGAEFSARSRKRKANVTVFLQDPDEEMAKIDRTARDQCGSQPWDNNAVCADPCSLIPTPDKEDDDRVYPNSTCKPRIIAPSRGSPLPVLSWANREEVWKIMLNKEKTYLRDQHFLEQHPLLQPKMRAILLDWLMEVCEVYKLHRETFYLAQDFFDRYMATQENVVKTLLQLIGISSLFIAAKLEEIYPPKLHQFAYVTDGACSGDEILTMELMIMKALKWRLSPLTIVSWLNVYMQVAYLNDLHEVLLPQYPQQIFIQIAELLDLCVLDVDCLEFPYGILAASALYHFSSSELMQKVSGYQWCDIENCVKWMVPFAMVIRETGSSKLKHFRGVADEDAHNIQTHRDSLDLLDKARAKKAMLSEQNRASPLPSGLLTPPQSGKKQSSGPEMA

`O=C(O)CCCc1ccc(N(CCCl)CCCl)cc1` [Chlorambucil, reference compound]: the IC50 in experiment [1] was 87500 nM; in [2], 117000 nM; in [3], 132000 nM; in [5] it was 75500 nM; in experiment [6], 125000 nM; in experiment [8], 188000 nM. The IC50 in [9] was found to be 62400 nM; in experiment [10], 204000 nM; in experiment [11], 143000 nM; in [13], 159000 nM. Besides, the “CDK IC50, CDK9/cyclin T1 (Chlorambucil)” value in experiment [4] is reported as “No activity”. Moreover, in [7], the “CDK IC50, CDK2/cyclin E (Chlorambucil)” value is given as “No activity”. For the same compound, the “CDK IC50, CDK3/cyclin E (Chlorambucil)” value in experiment [12] is on record as “No activity”.

Consider `CC(C)(C)c1cnc(CSc2cnc(NC(=O)Cc3ccc(N(CCCl)CCCl)cc3)s2)o1` [CY-201, 2-(4-(bis(2-chloroethyl)amino)phenyl)-N-(5-((5-tert-butyloxazol-2-yl)methylthio)thiazol-2-yl)acetamide], for which the Ratio in experiment [1] worked out at 895.4; in [2] it was 1088.9; in experiment [3], 1227.4; in experiment [5], 280.5; in experiment [6] it was 1577.6; in experiment [8], 1273.5. Also, the Ratio came to 1083.9 in [9], 1380.4 in experiment [10], 1570.4 in experiment [11] and 727.8 in [13]. For the same compound, the IC50 in experiment [1] was 98 nM; in experiment [2], 107 nM; in experiment [3], 107 nM; in [4], 90.4 nM; in experiment [5], 269 nM; in experiment [6], 79 nM. The IC50 in [7] came out at 2.7 nM; in experiment [8], 148 nM; in experiment [9], 58 nM; in experiment [10] it was 148 nM; in [11] it was 91 nM; in experiment [12], 45.6 nM. The IC50 in experiment [13] came out at 219 nM. Further, in [6], the “fold more potent than the parental drug Chlorambucil” value is on record as “more than 1,500 fold”.

The IC50 is the concentration needed to halve the response being measured.
